This is an account of results in patent publication US11759509B2, “WT1 antigen peptide conjugate vaccine” (Sumitomo Pharma Co., Ltd., priority 2013, dated 2023).

Positions of bridges follow the written chain, without caps; N, C: chain ends. Residues, ends and D or L forms follow the SMILES beside them. Chains are numbered I, II in the order given. No end group written: not given here.

The nature of one data set: physchem. Conditions: for solubility at 90 min: pH 6; for solubility thermodynamic at 90 min: pH 7.4.
A further data set deals with ERAP1 (Homo sapiens, UniProt Q9NZ08). Kind of data set: Time-course changes of trimming of N-terminal amino acid by ERAP1. It counts as biochemical. Conditions: room temperature. The procedure:
Time-Course Changes of Trimming of N-Terminal Amino Acid by ERAP1
30 μl of ERAP1 (2.0 mg/ml) in PBS buffer solution was added to 258 μl of Tris·HCl buffer. DMSO solution (12.0 μl) of 10 mM each peptide was added to the aforementioned ERAP1 solution, and the mixture was blended well and stood at room temperature. 1.0, 2.0, 4.0, 8.0 hr later, 50 μl of a sample was added to 150 μl of MeOH to terminate the reaction, 25 μl was injected into UFLC (analysis conditions shown below), and AUC of the object peptide was determined. […] Concentration of SOLUTION B was raised from 1.0% to 70% from 0.0 min to 5.0 min • 2. Concentration of SOLUTION B was raised from 1.0% to 50% from 0.0 min to 5.0 min • object peptide: […]

A short description of data set [1]: Measurement of solubility in isotonic buffer (pH 6.0 and 7.4). The note with it: isotonic disodium hydrogen phosphate/citric acid buffer.
Procedure: Measurement of Solubility
(§1) 75% aqueous solution of disodium hydrogen phosphate and 5.53% aqueous solution of citric acid were mixed, and respective buffers (pH 6.0 and 7.4) were prepared.
(§2) About 1 mg of a test product was measured, an isotonic buffer (0.5 mL) was added, and this was used as a test solution. The prepared test solution was shaken at room temperature for 90 min (shaking conditions: RECIPRO SHAKER SR-1N manufactured by TAITEC, Speed=8), centrifuged (15000 rpm, 5 min, room temperature), and the supernatant after centrifugation was used as a test solution.
(§3) About 1 mg of the test product was accurately measured, dissolved in 0.1% TFA water/acetonitrile=1/1, made the total amount 10 mL, and this was used as a standard solution of the test product.
(§4) The standard solution of the test product and the test solution were analyzed by HPLC (analysis conditions described in Table 59), and the solubility of the test product was calculated from the peak area ratio of the standard solution.
(§5) • column: ChemcoPack Quicksorb (4.6 mmφ×150 mm, 5 μm) manufactured by Chemco Scientific Co., Ltd. • mobile phase: SOLUTION A; 0.1% TFA water, SOLUTION B; 0.1% TFA acetonitrile solution • column temperature: room temperature • flow rate: 1 mL/min • detection wavelength: UV 254 nm, 230 nm (2 wavelength detection) • sample injection volume: 10 μL

Sequence of ERAP1 (Q9NZ08 whole entry): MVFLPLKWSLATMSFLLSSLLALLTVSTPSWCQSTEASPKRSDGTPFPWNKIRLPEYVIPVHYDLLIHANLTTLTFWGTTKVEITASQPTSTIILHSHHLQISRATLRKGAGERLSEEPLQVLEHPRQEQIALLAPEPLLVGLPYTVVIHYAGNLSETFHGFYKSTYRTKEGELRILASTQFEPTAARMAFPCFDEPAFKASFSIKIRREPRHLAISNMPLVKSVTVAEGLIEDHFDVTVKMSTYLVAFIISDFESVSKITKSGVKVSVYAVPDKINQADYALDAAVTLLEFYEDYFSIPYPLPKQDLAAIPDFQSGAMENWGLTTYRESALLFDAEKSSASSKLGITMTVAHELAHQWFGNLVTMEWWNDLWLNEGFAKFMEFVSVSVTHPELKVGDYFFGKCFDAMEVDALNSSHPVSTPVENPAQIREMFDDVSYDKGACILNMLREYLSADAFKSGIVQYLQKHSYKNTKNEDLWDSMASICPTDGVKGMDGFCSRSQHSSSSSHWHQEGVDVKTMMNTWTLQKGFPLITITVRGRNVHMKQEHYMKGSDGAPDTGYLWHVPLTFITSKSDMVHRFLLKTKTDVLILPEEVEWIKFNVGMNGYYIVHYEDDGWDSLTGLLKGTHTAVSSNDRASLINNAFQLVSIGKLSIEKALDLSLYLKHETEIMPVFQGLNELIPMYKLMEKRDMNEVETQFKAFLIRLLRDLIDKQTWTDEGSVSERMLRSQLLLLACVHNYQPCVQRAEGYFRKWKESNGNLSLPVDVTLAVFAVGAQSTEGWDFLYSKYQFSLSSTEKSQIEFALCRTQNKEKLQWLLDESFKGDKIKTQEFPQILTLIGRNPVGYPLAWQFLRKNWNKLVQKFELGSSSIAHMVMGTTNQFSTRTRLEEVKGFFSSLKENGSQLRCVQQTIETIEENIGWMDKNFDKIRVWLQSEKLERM
Procedure for physchem: Measurement of Solubility
as §1, §2, §3, §4, §5

As to `CSCC[C@H](NC(=O)[C@@H](N)CCCNC(=N)N)C(=O)N[C@@H](Cc1ccccc1)C(=O)N1CCC[C@H]1C(=O)N[C@@H](CC(N)=O)C(=O)N[C@@H](C)C(=O)N1CCC[C@H]1C(=O)N[C@@H](Cc1ccc(O)cc1)C(=O)N[C@@H](CC(C)C)C(=O)O` [SEQ ID NO: 2], in the data set “physchem”, the solubility – broadly, the dissolved amount per volume that the medium holds – at 90 min was greater than 1000 µg/mL and the solubility (thermodynamic) (usually solubility found after equilibrating the solid with the medium) at 90 min is greater than 1000 µg/mL.
In the case of `CSCC[C@H](NC(=O)[C@H](CCCNC(=N)N)NC(=O)[C@@H](N)CSSC[C@H](N)C(=O)N[C@@H](CO)C(=O)N[C@@H](CC(C)C)C(=O)NCC(=O)N[C@@H](CCC(=O)O)C(=O)N[C@@H](CCC(N)=O)C(=O)N[C@@H](CCC(N)=O)C(=O)N[C@@H](Cc1ccc(O)cc1)C(=O)N[C@@H](CO)C(=O)N[C@H](C(=O)O)C(C)C)C(=O)N[C@@H](Cc1ccccc1)C(=O)N1CCC[C@H]1C(=O)N[C@@H](CC(N)=O)C(=O)N[C@@H](C)C(=O)N1CCC[C@H]1C(=O)N[C@@H](Cc1ccc(O)cc1)C(=O)N[C@@H](CC(C)C)C(=O)O` [formula (3)] (I: H-CRMFPNAPYL-OH / II: H-CSLGEQQYSV-OH; disulfide I:1-II:1), in “physchem”, the solubility at 90 min was greater than 1000 µg/mL and the solubility (thermodynamic) at 90 min is greater than 1000 µg/mL.
Regarding `CSCC[C@H](NC(=O)[C@H](CCC(N)=O)NC(=O)[C@H](CC(N)=O)NC(=O)[C@H](Cc1c[nH]c2ccccc12)NC(=O)[C@@H](NC(=O)[C@H](Cc1ccc(O)cc1)NC(=O)[C@@H](N)CSSC[C@H](N)C(=O)N[C@@H](CCCNC(=N)N)C(=O)N[C@@H](CCSC)C(=O)N[C@@H](Cc1ccccc1)C(=O)N1CCC[C@H]1C(=O)N[C@@H](CC(N)=O)C(=O)N[C@@H](C)C(=O)N1CCC[C@H]1C(=O)N[C@@H](Cc1ccc(O)cc1)C(=O)N[C@@H](CC(C)C)C(=O)O)[C@@H](C)O)C(=O)N[C@@H](CC(N)=O)C(=O)N[C@@H](CC(C)C)C(=O)O` [formula (5)] (I: H-CRMFPNAPYL-OH / II: H-CYTWNQMNL-OH; disulfide I:1-II:1), in “physchem”, the solubility at 90 min stood at 511 µg/mL and the thermodynamic solubility at 90 min amounted to 200 µg/mL.
For `CSCC[C@H](NC(=O)[C@H](CCC(N)=O)NC(=O)[C@H](CC(C)C)NC(=O)[C@H](Cc1c[nH]cn1)NC(=O)[C@H](CO)NC(=O)[C@H](CC(C)C)NC(=O)[C@H](CCCCN)NC(=O)[C@H](Cc1ccccc1)NC(=O)[C@H](Cc1ccc(O)cc1)NC(=O)[C@H](CCCNC(=N)N)NC(=O)[C@H](CCCCN)NC(=O)[C@H](CC(N)=O)NC(=O)[C@@H](N)CSSC[C@H](N)C(=O)N[C@@H](CCCNC(=N)N)C(=O)N[C@@H](CCSC)C(=O)N[C@@H](Cc1ccccc1)C(=O)N1CCC[C@H]1C(=O)N[C@@H](CC(N)=O)C(=O)N[C@@H](C)C(=O)N1CCC[C@H]1C(=O)N[C@@H](Cc1ccc(O)cc1)C(=O)N[C@@H](CC(C)C)C(=O)O)C(=O)N[C@@H](Cc1c[nH]cn1)C(=O)N[C@@H](CO)C(=O)N[C@@H](CCCNC(=N)N)C(=O)N[C@@H](CCCCN)C(=O)N[C@@H](Cc1c[nH]cn1)C(=O)N[C@H](C(=O)NCC(=O)O)[C@@H](C)O` [formula (6)] (I: H-CNKRYFKLSHLQMHSRKHTG-OH / II: H-CRMFPNAPYL-OH; disulfide I:1-II:1), in the data set “physchem”, the solubility at 90 min was greater than 1000 µg/mL and the thermodynamic solubility at 90 min is 279 µg/mL.
For `CSCC[C@H](NC(=O)[C@H](CCC(N)=O)NC(=O)[C@H](CC(C)C)NC(=O)[C@H](Cc1c[nH]cn1)NC(=O)[C@H](CO)NC(=O)[C@H](CC(C)C)NC(=O)[C@H](CCCCN)NC(=O)[C@H](Cc1ccccc1)NC(=O)[C@H](Cc1ccc(O)cc1)NC(=O)[C@H](CCCNC(=N)N)NC(=O)[C@H](CCCCN)NC(=O)[C@H](CC(N)=O)NC(=O)[C@@H](N)CSSC[C@H](N)C(=O)N[C@@H](CCCNC(=N)N)C(=O)N[C@@H](CCSC)C(=O)N[C@@H](Cc1ccccc1)C(=O)N1CCC[C@H]1C(=O)N[C@@H](CC(N)=O)C(=O)N[C@@H](C)C(=O)N1CCC[C@H]1C(=O)N[C@@H](Cc1ccc(O)cc1)C(=O)N[C@@H](CC(C)C)C(=O)O)C(=O)N[C@@H](Cc1c[nH]cn1)C(=O)N[C@@H](CO)C(=O)N[C@@H](CCCNC(=N)N)C(=O)N[C@@H](CCCCN)C(=O)O` [formula (8)] (I: H-CNKRYFKLSHLQMHSRK-OH / II: H-CRMFPNAPYL-OH; disulfide I:1-II:1) the same measures were greater than 1000 µg/mL and 789 µg/mL.
For `CSCC[C@H](NC(=O)[C@H](CCC(N)=O)NC(=O)[C@H](CC(C)C)NC(=O)[C@H](Cc1c[nH]cn1)NC(=O)[C@H](CO)NC(=O)[C@H](CC(C)C)NC(=O)[C@H](CCCCN)NC(=O)[C@H](Cc1ccccc1)NC(=O)[C@H](Cc1ccc(O)cc1)NC(=O)[C@H](CCCNC(=N)N)NC(=O)[C@H](CCCCN)NC(=O)[C@H](CC(N)=O)NC(=O)[C@@H](N)CSSC[C@H](N)C(=O)N[C@@H](C)C(=O)N[C@@H](CC(C)C)C(=O)N[C@@H](CC(C)C)C(=O)N1CCC[C@H]1C(=O)N[C@@H](C)C(=O)N[C@H](C(=O)N1CCC[C@H]1C(=O)N[C@@H](CO)C(=O)N[C@@H](CC(C)C)C(=O)O)C(C)C)C(=O)N[C@@H](Cc1c[nH]cn1)C(=O)N[C@@H](CO)C(=O)N[C@@H](CCCNC(=N)N)C(=O)N[C@@H](CCCCN)C(=O)N[C@@H](Cc1c[nH]cn1)C(=O)N[C@H](C(=O)NCC(=O)O)[C@@H](C)O` [formula (9)] (I: H-CNKRYFKLSHLQMHSRKHTG-OH / II: H-CALLPAVPSL-OH; disulfide I:1-II:1), in “physchem”, the solubility at 90 min was greater than 1000 µg/mL and the thermodynamic solubility at 90 min worked out at 565 µg/mL.
On the same counts, the results for ALLPAVPSL [SEQ ID NO: 5] are greater than 1000 µg/mL and greater than 1000 µg/mL.
For the molecule CALLPAVPSL [Example 3], on ERAP1, the “formation rate (%) of the peptide obtained by trimming, 1 hr later” value came to 65.5%; the “formation rate (%) of the peptide obtained by trimming, 2 hr later” value came out at 50.6%; the “formation rate (%) of the peptide obtained by trimming, 4 hr later” value stood at 13.5%; the “formation rate (%) of the peptide obtained by trimming, 8 hr later” value amounted to 0%.
In the case of CNKRYFKLSHLQMHSRK [SEQ ID NO: 22], in “physchem”, the solubility at 90 min is greater than 1000 µg/mL and the solubility (thermodynamic) at 90 min worked out at 931 µg/mL.
In “physchem”, CNKRYFKLSHLQMHSRKH [SEQ ID NO: 23] gave a solubility at 90 min greater than 1000 µg/mL and a solubility (thermodynamic) at 90 min of 712 µg/mL.
On the same counts, the results for CNKRYFKLSHLQMHSRKHTG [SEQ ID NO: 24] are greater than 1000 µg/mL and 556 µg/mL.
As to CRVPGVAPTL [Example 4], on ERAP1, the “formation rate (%) of the peptide obtained by trimming, 1 hr later” value was 59.1%; the “formation rate (%) of the peptide obtained by trimming, 2 hr later” value worked out at 57.5%; the “formation rate (%) of the peptide obtained by trimming, 4 hr later” value is listed as 30.1%; the “formation rate (%) of the peptide obtained by trimming, 8 hr later” value is listed as 7.80%.
For CSLGEQQYSV [Example 5] the same measures were 77.6%, 72.8%, 46.0% and 7.90%.
In data set [1] (pH 6), CYTWNQMNL [SEQ ID NO: 4] had a solubility at 90 min of 106 µg/mL. The same molecule returned a thermodynamic solubility at 90 min in data set [1] (pH 7.4) of 167 µg/mL.
In the data set “physchem”, SLGEQQYSV [SEQ ID NO: 6] displayed a solubility at 90 min greater than 1000 µg/mL and a thermodynamic solubility at 90 min greater than 1000 µg/mL.
